Publication PMC8486872, “A rational blueprint for the design of chemically-controlled protein switches” (Nature Communications, 2021)
Several values for one entry are separate records, joined by “and”; a condition that tells them apart may be missing. Identical values can stand only once.

Assays:
Assay type in all cases: cell-based
[1] = system: Gal4/UAS SEAP expression in HEK293T cells; test: Drug specificity of CDH-TFs; details: Suppl Fig 7b
Experimental: Supplementary Figure 7: Dose-dependence and reversibility characterization of CDHs in CDH-
a) Background signal of SEAP reporter in the absence of the CDH-TF system. HEK239T cells were
(§1) transfected with SEAP reporter S132 and treated with 1 µM Drugs 12 hours post transfection.
(§2) Quantification of SEAP was performed 24 hours after drug treatment. b) Drug specificity of CDH-TFs. […]

[2] = system: SEAP and Luciferase expression in HEK293T cells; test: MIMO designer cells (AIR-1/2-GEMS + CDH-3-TF); details: for Luciferase: Fig5c, turn OFF via CDH-3-TF; for AIR-1-GEMS controlled SEAP expression: Fig S13c; for AIR-2-GEMS controlled SEAP expression: Fig S13e
From the text: We first engineered MIMO cells to respond to two drugs with distinct outputs (Fig. 5a) by co-transfecting the CDH-3-TF with either AIR-1-GEMS (Fig. 5b) or AIR-2-GEMS (Fig. 5c).
Fig. 5 Orthogonal chemical switches enable implementation of multi-input multi-output control modes in mammalian cells. a Scheme of multi-inputs multi-outputs (MIMO) designer cells where two drugs control two different outputs. b, c Cells were co-transfected with AIR-1/2-GEMS and CDH-3-TF regulate SEAP and Luciferase expression, respectively. […] AIR-1/2-GEMS coupled with SEAP expression circuits were co-transfected with CDH-1/2-TF circuits which control the Luciferase production. Respective drug concentrations ranged from 0.001 nM to 1 µM. All values presented are mean ± s.d. of three replicates and curves were fitted by four-parameters nonlinear regression. b, c, e, f, h, i Source data are available in the source data file.
Supplementary Figure 13: Orthogonal chemical switches enable implementation of multi-input multi-output control modes in mammalian cells. a) Dual drug toxicity tests in 293T cells. […]
concentrations of 1 nM, 10 nM, 100 nM and 1000 nM each drug in cell culture medium. CCK8 assay was performed 24 hours after drug treatment. Each bar represents the mean of three biological replicates ± s.d, overlaid with a scatter dot plot of the original data points. b-c) Cells were co-transfected with AIR-1-GEMS and CDH-3-TF regulate SEAP and Luciferase expression, respectively. Drug concentrations ranged from 0.001 nM to 1 µM and different combinations were added depending on the protein components, Drug-1 only (b) and Drug-3 only (c). d-e) Cells were co-transfected with AIR-2-GEMS and CDH-3-TF regulate SEAP and Luciferase expression, respectively. Drug concentrations ranged from 0.001 nM to 1 µM and different combinations were added depending on the protein […]
1-TF and CDH-3-TF circuits. Drug-1 concentrations ranged from 0.001 nM to 1 µM (left) and 1 µM Drug-1 with serial diluted Drug-3 from 0.001 nM to 1 µM (right). g) Quantification of SEAP activity controlled by CDH-1-GEMS and CDH-3-GEMS circuits. Drug-1 concentrations ranged from 0.001 nM to 1 µM (left) and Drug-3 dilution along with 1 µM Drug-1 (right). h-i) Quantification of SEAP and Luciferase activities under Drug-1. AIR-1-GEMS coupled with SEAP expression circuits (i) and CDH-1-TF circuits which control the Luciferase production (j). j-k) Quantification of SEAP and Luciferase activities under Drug-2. AIR-2-GEMS coupled with SEAP expression circuits (k) and CDH-2-TF circuits which control the Luciferase production (l). b-k) Each data point represents the mean of n = 3 biological replicates, and the dose-dependent curve were fitted using four-parameter nonlinear regression.

[3] = system: SEAP expression in HEK293T cells; test: Background signal of SEAP reporter and single-construct controls
Experimental: Supplementary Figure 7: Dose-dependence and reversibility characterization of CDHs in CDH- […]
as §1, §2
Background signal of SEAP reporter in the absence of the CDH-GEMS system. HEK293T cells were transfected with pLS566 SEAP reporter plasmids and treated with drugs. Quantification of SEAP was performed 24 hours post drug treatment. f) SEAP activity upon transfecting single or paired […]
Quantification of SEAP activity of three CDHs with DMSO (dark color), specific (light color) and unspecific drug treatment (gray). […]
(culture medium) in panels of b, c, f and g were collected every 12 hours. Values were normalized to zero based on the SEAP expression at time 0. a, b, e, f, g) The bar charts show the mean ± s.d. of n = 3 biologically independent samples overlaid with a scatter dot plot of the original data points.

[4] = Fig5c Luciferase via CDH-3-TF, four-parameter fit

COc1cc2c(cc1OC(C)C)[C@H](c1ccc(Cl)cc1)N(c1ccc(N(C)C[C@H]3CC[C@H](N4CCN(C)C(=O)C4)CC3)cc1)C(=O)C2 [Drug-3, NVP-CGM097]
Reporter signal, drug specificity ([1]; CDH1): 58.9096 and 56.9625 and 57.522 | Reporter signal, drug specificity ([1]; CDH2): 99.5028 and 95.5176 and 91.4654 | Reporter signal, drug specificity ([1]; CDH3): 52.7796 and 52.4144 and 49.1641 | Bottom (best-fit value) [2, 4]: 2526 | HillSlope (best-fit value) [2, 4]: -0.2874 | Span (best-fit value) [2, 4]: 8582 | Top (best-fit value) [2, 4]: 11108 | logIC50 (best-fit value) ([2]; Fig5c Luciferase via CDH-3-TF, four-parameter fit, drug in nM): 0.378 | Luciferase ([2]; 0.001 nM): 11408 and 10803 and 9477 | Luciferase ([2]; 0.01 nM): 8964 and 10094 and 8469 | Luciferase ([2]; 0.05 nM): 9839 and 9595 and 9040 | Luciferase ([2]; 0.1 nM): 9399 and 10012 and 6733 | Luciferase ([2]; 0.5 nM): 8698 and 9248 and 7194 | Luciferase ([2]; 1 nM): 7508 and 6014 and 5224 | Luciferase ([2]; 5 nM): 7040 and 7013 and 4899 | Luciferase ([2]; 50 nM): 6881 and 6483 and 4547 | Luciferase ([2]; 100 nM): 6853 and 5994 and 4849 | Luciferase ([2]; 500 nM): 3847 and 3669 and 3338 | Luciferase ([2]; 1000 nM): 2560 and 2436 and 2236 | CDH-3-TF controlled Luciferase expression ([2]; Fig S13c (with AIR-1-GEMS), Drug-3 0.01 nM): 74322 RLU and 90639 RLU and 90152 RLU | CDH-3-TF controlled Luciferase expression ([2]; Fig S13c (with AIR-1-GEMS), Drug-3 0.1 nM): 79497 RLU and 97593 RLU and 89748 RLU | CDH-3-TF controlled Luciferase expression ([2]; Fig S13c (with AIR-1-GEMS), Drug-3 1 nM): 92895 RLU and 90324 RLU and 97096 RLU | CDH-3-TF controlled Luciferase expression ([2]; Fig S13c (with AIR-1-GEMS), Drug-3 3.14 nM): 89025 RLU and 81214 RLU and 83886 RLU | CDH-3-TF controlled Luciferase expression ([2]; Fig S13c (with AIR-1-GEMS), Drug-3 10 nM): 71915 RLU and 80976 RLU and 86610 RLU | CDH-3-TF controlled Luciferase expression ([2]; Fig S13c (with AIR-1-GEMS), Drug-3 31.4 nM): 73972 RLU and 79521 RLU and 71327 RLU | CDH-3-TF controlled Luciferase expression ([2]; Fig S13c (with AIR-1-GEMS), Drug-3 100 nM): 58208 RLU and 70422 RLU and 71065 RLU | CDH-3-TF controlled Luciferase expression ([2]; Fig S13c (with AIR-1-GEMS), Drug-3 314 nM): 42892 RLU and 48456 RLU and 50289 RLU | CDH-3-TF controlled Luciferase expression ([2]; Fig S13c (with AIR-1-GEMS), Drug-3 1000 nM): 30804 RLU and 29063 RLU and 25322 RLU | AIR-1-GEMS controlled SEAP expression ([2]; Drug-3 0.01 nM): 2.627 U/L and 3.059 U/L and 3.456 U/L | AIR-1-GEMS controlled SEAP expression ([2]; Drug-3 0.1 nM): 2.503 U/L and 2.294 U/L and 2.87 U/L | AIR-1-GEMS controlled SEAP expression ([2]; Drug-3 1 nM): 2.418 U/L and 1.987 U/L and 3.339 U/L | AIR-1-GEMS controlled SEAP expression ([2]; Drug-3 3.14 nM): 2.659 U/L and 2.285 U/L and 3.202 U/L | AIR-1-GEMS controlled SEAP expression ([2]; Drug-3 10 nM): 2.675 U/L and 2.964 U/L and 4.021 U/L | AIR-1-GEMS controlled SEAP expression ([2]; Drug-3 31.4 nM): 3.041 U/L and 3.191 U/L and 3.396 U/L | AIR-1-GEMS controlled SEAP expression ([2]; Drug-3 100 nM): 2.602 U/L and 2.779 U/L and 2.696 U/L | AIR-1-GEMS controlled SEAP expression ([2]; Drug-3 314 nM): 2.611 U/L and 3.076 U/L and 2.832 U/L | AIR-1-GEMS controlled SEAP expression ([2]; Drug-3 1000 nM): 3.25 U/L and 2.611 U/L and 2.639 U/L | CDH-3-TF controlled Luciferase expression ([2]; Fig S13e (with AIR-2-GEMS), Drug-3 0.01 nM): 41565 RLU and 51927 RLU and 50033 RLU | CDH-3-TF controlled Luciferase expression ([2]; Fig S13e (with AIR-2-GEMS), Drug-3 0.1 nM): 58083 RLU and 52382 RLU and 52587 RLU | CDH-3-TF controlled Luciferase expression ([2]; Fig S13e (with AIR-2-GEMS), Drug-3 1 nM): 58208 RLU and 58951 RLU and 60752 RLU | CDH-3-TF controlled Luciferase expression ([2]; Fig S13e (with AIR-2-GEMS), Drug-3 3.14 nM): 50716 RLU and 61071 RLU and 59090 RLU | CDH-3-TF controlled Luciferase expression ([2]; Fig S13e (with AIR-2-GEMS), Drug-3 10 nM): 56023 RLU and 57202 RLU and 60529 RLU | CDH-3-TF controlled Luciferase expression ([2]; Fig S13e (with AIR-2-GEMS), Drug-3 31.4 nM): 53333 RLU and 47578 RLU and 50640 RLU | CDH-3-TF controlled Luciferase expression ([2]; Fig S13e (with AIR-2-GEMS), Drug-3 100 nM): 44259 RLU and 48370 RLU and 51647 RLU | CDH-3-TF controlled Luciferase expression ([2]; Fig S13e (with AIR-2-GEMS), Drug-3 314 nM): 32705 RLU and 39602 RLU and 35080 RLU | CDH-3-TF controlled Luciferase expression ([2]; Fig S13e (with AIR-2-GEMS), Drug-3 1000 nM): 15038 RLU and 22579 RLU and 17745 RLU | AIR-2-GEMS controlled SEAP expression ([2]; Drug-3 0.01 nM): 23.8276 U/L and 27.0293 U/L and 24.7478 U/L | AIR-2-GEMS controlled SEAP expression ([2]; Drug-3 0.1 nM): 31.2293 U/L and 29.7436 U/L and 28.9473 U/L | AIR-2-GEMS controlled SEAP expression ([2]; Drug-3 1 nM): 33.4988 U/L and 33.4382 U/L and 38.599 U/L | AIR-2-GEMS controlled SEAP expression ([2]; Drug-3 3.14 nM): 29.7735 U/L and 33.7772 U/L and 32.4262 U/L | AIR-2-GEMS controlled SEAP expression ([2]; Drug-3 10 nM): 34.6343 U/L and 33.3124 U/L and 32.8022 U/L | AIR-2-GEMS controlled SEAP expression ([2]; Drug-3 31.4 nM): 36.5713 U/L and 29.6375 U/L and 31.1491 U/L | AIR-2-GEMS controlled SEAP expression ([2]; Drug-3 100 nM): 34.5656 U/L and 34.2561 U/L and 36.2322 U/L | AIR-2-GEMS controlled SEAP expression ([2]; Drug-3 314 nM): 30.9331 U/L and 30.4872 U/L and 34.4499 U/L | AIR-2-GEMS controlled SEAP expression ([2]; Drug-3 1000 nM): 13.1028 U/L and 12.5357 U/L and 11.75 U/L | IC50 ([2]; Homo sapiens, HEK-293T, Fig5c Luciferase turn OFF via CDH-3-TF, four-parameter fit, read-out: IC50 (best-fit value)): 2.39 nM | Reporter background signal ([3]; Suppl Fig 7a, TF reporter (S132) only): 2.305 and 2.301 and 2.45 | Reporter background signal ([3]; Suppl Fig 7e, GEMS reporter (pLS566) only): 5.089 and 3.395 and 2.755
